Measured values reported in paper PMC8070648, “Simultaneous Visualization of ^161Tb- and ^177Lu-Labeled Somatostatin Analogues Using Dual-Isotope SPECT Imaging” (Pharmaceutics, 2021).
Like-named read-outs stand apart in the source and are kept apart here.

Assay: Biodistribution in AR42J tumor-bearing nude mice
Assay type: in vivo
Conditions: female, CD-1 nude, mouse, iv, 1 nmol/mouse, total radioactivity, i.v. 5 MBq; for tissue uptake at 2 h: 2 h p.i.; for tissue uptake at 24 h: 24 h p.i.
Source text: Five-week-old female CD-1 nude mice were purchased from Charles River Laboratories (Sulzfeld, Germany).

[1] = AR42J tumor, read-out: AR42J Tumor
[2] = femoral muscle, read-out: Muscle
[3] = intestines, read-out: Intestines

C[C@@H](O)[C@@H]1NC(=O)[C@H](CCCCN)NC(=O)[C@@H](Cc2c[nH]c3ccccc23)NC(=O)[C@H](Cc2ccc(O)cc2)NC(=O)[C@@H](NC(=O)[C@@H](Cc2ccccc2)NC(=O)CN2CCN(CC(=O)O)CCN(CC(=O)O)CCN(CC(=O)O)CC2)CSSC[C@@H](C(=O)N[C@H](CO)[C@@H](C)O)NC1=O [[^161Tb]Tb-DOTATOC, metal not drawn]
tissue uptake at 2 h [1]: 8.2 ± 0.2 %ID/g
tissue uptake at 24 h [1]: 3.8 ± 0.6 %ID/g
tissue uptake at 2 h (adrenals, read-out: Adrenals): 0.25 ± 0.06 %ID/g
tissue uptake at 24 h (adrenals, read-out: Adrenals): 0.23 ± 0.2 %ID/g
tissue uptake at 2 h (blood, read-out: Blood): ≤ 0.1 %ID/g
tissue uptake at 24 h (blood, read-out: Blood): ≤ 0.1 %ID/g
tissue uptake at 2 h [2]: ≤ 0.1 %ID/g
tissue uptake at 24 h [2]: ≤ 0.1 %ID/g
tissue uptake at 2 h (femur, read-out: Femur): ≤ 0.1 %ID/g
tissue uptake at 24 h (femur, read-out: Femur): ≤ 0.1 %ID/g
tissue uptake at 2 h (heart, read-out: Heart): ≤ 0.1 %ID/g
tissue uptake at 24 h (heart, read-out: Heart): ≤ 0.1 %ID/g
tissue uptake at 2 h [3]: 0.21 ± 0.13 %ID/g
tissue uptake at 24 h [3]: ≤ 0.1 %ID/g
tissue uptake at 2 h (kidneys, read-out: Kidneys): 9.9 ± 1.4 %ID/g
tissue uptake at 24 h (kidneys, read-out: Kidneys): 5.2 ± 0.6 %ID/g
tissue uptake at 2 h (liver, read-out: Liver): 0.17 ± 0.01 %ID/g
tissue uptake at 24 h (liver, read-out: Liver): ≤ 0.1 %ID/g
tissue uptake at 2 h (lung, read-out: Lung): 0.27 ± 0.03 %ID/g
tissue uptake at 24 h (lung, read-out: Lung): 0.11 ± 0.01 %ID/g
tissue uptake at 2 h (pancreas, read-out: Pancreas): 0.71 ± 0.07 %ID/g
tissue uptake at 24 h (pancreas, read-out: Pancreas): 0.18 ± 0.01 %ID/g
tissue uptake at 2 h (spleen, read-out: Spleen): 0.11 ± 0.02 %ID/g
tissue uptake at 24 h (spleen, read-out: Spleen): ≤ 0.1 %ID/g
tissue uptake at 2 h (stomach, read-out: Stomach): 0.74 ± 0.38 %ID/g
tissue uptake at 24 h (stomach, read-out: Stomach): 0.29 ± 0.11 %ID/g
